Assay results: the supplement of paper PMC10307832

Tests used:
Test in all cases: relative viability (nuclei count vs DMSO), 5 days (fraction); higher = more cells survive
[1] = compound: CCC1=CN=CN=C1N2CCN(CC2)CC3=NC4=C(N3)C=C(C=C4)C(F)(F)F + CC(C)C[C@H](NC(=O)[C@H](Cc1ccccc1)NC(=O)c1cnccn1)B(O)O [Bortezomib] (partner 0.002 µM)
Summary of the method: (§1)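 Lung cancer cell lines, seeded in 1536-well plates, were treated the following day by pin tool with a single drug or with five library-drug doses (not always all listed) in √10 steps on top of a fixed anchor-drug dose. Cells were fixed and nuclei stained in one step after 5 days, and nuclei were counted. Relative viability is the nuclei count for treated wells divided by that for vehicle wells, reported as medians of duplicate plates.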

[2] = compound: CCC1=CN=CN=C1N2CCN(CC2)CC3=NC4=C(N3)C=C(C=C4)C(F)(F)F + C[C@]1(O)C[C@@H](c2nc(-c3ccc4ccc(-c5ccccc5)nc4c3)c3c(N)nccn32)C1 [Linsitinib] (partner 1 µM)
Summary of the method: as §1

[3] = compound: CCC1=CN=CN=C1N2CCN(CC2)CC3=NC4=C(N3)C=C(C=C4)C(F)(F)F + N=C(N)NC(=N)NCCc1ccccc1 [Phenformin] (partner 250 µM)
Summary of the method: as §1

[4] = compound: N=C1NC(=O)/C(=C/c2ccc(O)cc2)S1 [Mirin] + Cc1nc(Nc2ncc(C(=O)Nc3c(C)cccc3Cl)s2)cc(N2CCN(CCO)CC2)n1 [Dasatinib] (partner 0.075 µM)
Summary of the method: as §1

Cell Line	relative viability ([1]; first compound 0.04 µM)	relative viability ([1]; first compound 0.1265 µM)	relative viability ([1]; first compound 0.4 µM)	relative viability ([1]; first compound 1.265 µM)	relative viability ([1]; first compound 4 µM)	relative viability ([2]; first compound 0.04 µM)	relative viability ([2]; first compound 0.1265 µM)	relative viability ([2]; first compound 0.4 µM)	relative viability ([2]; first compound 1.265 µM)	relative viability ([2]; first compound 4 µM)	relative viability ([3]; first compound 0.04 µM)	relative viability ([3]; first compound 0.1265 µM)	relative viability ([3]; first compound 0.4 µM)	relative viability ([3]; first compound 1.265 µM)	relative viability ([3]; first compound 4 µM)	relative viability ([4]; first compound 0.25 µM)	relative viability ([4]; first compound 0.7906 µM)	relative viability ([4]; first compound 2.5 µM)	relative viability ([4]; first compound 7.906 µM)	relative viability ([4]; first compound 25 µM)
LXF-289	1.07	0.953	0.971	1.04	0.917	0.983	0.957	0.983	0.976	0.954	0.54	0.461	0.547	0.483	0.529	0.26	0.214	0.202	0.207	0.202
HARA	1.12	1.05	1.06	1.01	0.964	0.915	0.832	0.919	0.733	0.831	0.464	0.368	0.305		0.472	0.194		0.222	0.247	0.195
LU99A	1.23	1.07	1.05	1.07	1.24	0.514	0.563	0.581	0.525	0.562	0.858	0.795	0.808	0.634	0.942	0.574	0.564	0.509	0.423	0.531
201T	1.09	1.06	1.04	1.09	1.14	0.922	1.04	0.998	0.88	1.01	0.517	0.455	0.474	0.431	0.442	0.595	0.636	0.545	0.474	0.598
HCC-827	1.01	0.997	1.02	0.95	0.953	0.951	0.915	0.955	0.923	0.926	0.453	0.357	0.406		0.404	0.407	0.336	0.301	0.451	0.334
NCI-H1666	0.799	0.714	0.896	0.811	0.779	0.726	0.832	0.845	0.913	0.821	0.569	0.551	0.52	0.555	0.594	0.93	0.807	0.846	0.709	0.681
NCI-H1915	1.01	0.907	0.966	0.962	1.01	1.15	1.09	1.09	1.04	1.12	0.361	0.362	0.376	0.344	0.358	0.308		0.332	0.342	0.31
NCI-H2009	1.13	0.999	1.03	0.716	0.982	1.16	1.19	1.21	1.2	1.17	0.483	0.498	0.45	0.419	0.374	0.292	0.341	0.323	0.227	0.139
COR-L 105	0.861	0.913	0.737	0.475	0.836	0.953	0.925	0.873	0.839	0.977	0.629	0.403	0.536	0.401	0.502	0.347	0.328	0.382	0.288	0.261
NCI-H1975	0.449	0.341	0.363	0.335	0.318	1.07	0.966	0.898	0.901	0.921	0.434	0.392	0.374	0.382	0.436	0.437	0.482	0.384	0.417	0.354
NCI-H322M	1.37	1.17	1.2	1.3	1.39	0.979	0.801	0.911	0.909	1.02	0.874	0.761	0.772	0.632	0.799	0.264	0.258	0.246	0.268	0.244
NCI-H2405	0.892	0.703	0.968		1	0.958	1.01	0.833		1.02	0.418	0.401	0.419		0.492	0.195	0.252	0.206	0.206	0.192
HCC-78	0.538	0.592	0.59	0.528	0.517	0.38	0.584	0.478	0.464	0.335	0.614	0.618	0.637	0.588	0.555	0.361	0.283	0.577	0.374	0.31
COR-L23	0.988	0.91	0.964	0.956	0.957	0.864	0.94	0.815	0.874	0.914	0.387	0.411	0.473	0.409	0.521	0.55	0.563	0.534	0.553	0.524
NCI-H1993	1.16	0.952	0.927	1.25	1.01	0.81	0.799	0.753	0.72	0.838	0.551	0.461	0.496	0.537	0.579	0.518		0.678	0.455	0.556
NCI-H3122	1.11	0.968	1	1.03	1.05	1.11	1.11	1.01	1.08	0.93	0.372	0.362	0.318	0.359	0.342	0.892	0.419	0.807	0.685	0.665
